# Test results as given in patent US20150274639A1, “METHODS OF USE FOR COMPOSITIONS COMPRISING A BIOCIDAL POLYAMINE” (Curza Global, LLC, priority 2013, published 2015).
# Legend:
# MRSA [1] = test: MIC in CAMHB, 96-well plate (10^5 to 10^2 CFU/mL in 24 hours); format: cell-based, methicillin-resistant Staphylococcus aureus; conditions: Staphylococcus aureus, MRSA, Table 5, class symbols
# Experimental: (§1) To determine the MIC of polyamine compounds, the protocol described herein was used.
# In brief, a 0.5 McFarland of each bacterial isolate was made. A 0.5 McFarland is a measure of turbidity in a liquid sample that contains approximately 1×10̂^8 CFU/mL. The 0.5 McFarland standard was diluted in cation adjusted Mueller Hinton Broth (CAMHB), and […], of broth were added to a well of a 96-well plate. In addition, 50 μL of CAMHB that contained a desired concentration of antimicrobial were also added to the well for a final volume of 100 and a final concentration of approximately 5×10^4 CFU/well (which equated to approximately 5×10^5 CFU/mL). Each well contained a desired amount of polyamine compound in order to experimentally determine the MIC. Each 96-well plate was incubated at 37° C. for 24 hours. The contents of each well were plated on tryptic soy agar (TSA). TSA plates were incubated for 37° C. for 24 hours after which the number of CFU were counted and used to calculate the CFU/mL that remained after exposure to varying concentrations of compound. This procedure was repeated n=8 times for each concentration of antimicrobial. […]
# P. aeruginosa = test: as above; format: cell-based; conditions: Pseudomonas aeruginosa, Table 5, class symbols
# Experimental: as §1
# In brief, a 0.5 McFarland of each bacterial isolate was made. A 0.5 McFarland is a measure of turbidity in a liquid sample that contains approximately 1×10̂^8 CFU/mL. The 0.5 McFarland standard was diluted in cation adjusted Mueller Hinton Broth (CAMHB), and […], of broth were added to a well of a 96-well plate. In addition, 50 μL of CAMHB that contained a desired concentration of antimicrobial were also added to the well for a final volume of 100 and a final concentration of approximately 5×10^4 CFU/well (which equated to approximately 5×10^5 CFU/mL). Each well contained a desired amount of polyamine compound in order to experimentally determine the MIC. Each 96-well plate was incubated at 37° C. for 24 hours. The contents of each well were plated on tryptic soy agar (TSA). TSA plates were incubated for 37° C. for 24 hours after which the number of CFU were counted and used to calculate the CFU/mL that remained after exposure to varying concentrations of compound. This procedure was repeated n=8 times for each concentration of antimicrobial.
# MRSA [2] = test: MIC against MRSA as defined by CLSI (FIG. 25 series); format: cell-based, methicillin-resistant Staphylococcus aureus; conditions: Staphylococcus aureus
# Experimental: To determine the MIC of the polyamine chains alone and the synthesized compounds against MRSA and P. aeruginosa ATCC 27853, a modified protocol from the Clinical and Laboratory Standards Institute (CLSI) guideline M26-A was used. […] All data was collected using cation adjusted MHB for standardization.
# As mentioned, MRSA and P. aeruginosa ATCC 27853 were grown on Columbia blood agar plates prior to experimentation. From the blood agar plates, a 0.5 McFarland standard was made of each isolate. This equated to approximately 5×10^7 cells/mL for the MRSA isolate and approximately 3×10^7 cells/mL for the P. aeruginosa ATCC 27853 isolate. Of the 0.5 McFarland stock solution, 50 μL were added to MHB. […] All tests were performed such that a final volume of 5 mL of MHB were obtained. This provided a final bacterial concentration of approximately 5×10^5 cells/mL.
# Each sample was incubated in glass test tubes at 37° C. for 24 hours, then plated in duplicate on tryptic soy agar (TSA) using a 10-fold dilution series. TSA plates were further incubated 24 hours at 37° C. The number of colony forming units (CFU) that grew were counted in order to calculate the number of bacteria that were present per mL in the original MHB solution.
# [3] = test system: biofilms of MRSA and P. aeruginosa; conditions: understanding of the inventors, no own test described; cited from earlier work
# biofilm formation = conditions: Kolodkin-Gal et al., Cell 149 (2012), cited from earlier work
Structure (SMILES),MIC (MRSA [1]),MIC (P. aeruginosa),other results
NCCCCNCc1ccccc1 [CZ-3],> 100 µM,–,–
CN(C)CCCNCCCNCc1ccccc1 [CZ-6],> 100 µM,–,–
NCCCNCc1cccc(CNCCCN)c1 [CZ-12],–,> 100 µM,–
NCCCNCCCNCCCNCc1ccccc1 [CZ-16],> 100 µM,–,–
Cc1cc(C)c(CNCCCN)c(C)c1CNCCCN [CZ-19],> 100 µM,–,–
NCCCNCCCNCc1cccc(CO)c1 [CZ-22],50 to 100 µM,–,–
NCCCCCCNCc1cccc(CNCCCCCCN)c1 [CZ-26],50 to 100 µM,> 100 µM,–
NCCCNCc1cc(CNCCCN)cc(CNCCCN)c1 [CZ-32],50 to 100 µM,50 to 100 µM,MIC (MRSA [2]): 45 µg/mL
NCCCCCCNCc1cc(CNCCCCCCN)cc(CNCCCCCCN)c1 [CZ-33],50 to 100 µM,> 100 µM,–
NCCCNC(=O)c1cccc(C(=O)NCCCN)c1 [CZ-40],–,> 100 µM,–
CN(C)CCCNCCCNCc1cccc(CNCCCNCCCN(C)C)c1 [CZ-43],> 100 µM,> 100 µM,–
NCCCNCCCNCc1cc(CO)cc(CNCCCNCCCN)c1 [CZ-53],< 50 µM,50 to 100 µM,–
CC(C)(C)OC(=O)NCCCNCCCNCc1cc(CNCCCNCCCN)cc(CNCCCNCCCNC(=O)OC(C)(C)C)c1 [CZ-54],< 50 µM,< 50 µM,–
NCCCNCCCNCCCNCc1cccc(CNCCCNCCCNCCCN)c1 [CZ-57],< 50 µM,> 100 µM,–
NCCCNCCCNCc1cc(CNCCCNCCCN)cc(-c2ccc3c(c2)OCO3)c1 [CZ-61],< 50 µM,< 50 µM,–
NCCCNCCCNCc1cccc(-c2cc(CNCCCNCCCN)cc(CNCCCNCCCN)c2)c1 [CZ-62],< 50 µM,< 50 µM,–
Cc1ccccc1-c1cc(CNCCCNCCCN)cc(CNCCCNCCCN)c1 [CZ-63],< 50 µM,< 50 µM,–
NCCCNCCCNCc1ccc(-c2cc(CNCCCNCCCN)cc(CNCCCNCCCN)c2)cc1 [CZ-65],< 50 µM,< 50 µM,–
CC(C)Oc1ccc(-c2cc(CNCCCNCCCN)cc(CNCCCNCCCN)c2)cc1CNCCCNCCCN [CZ-66],< 50 µM,< 50 µM,–
NCCCNCCCNCc1cc(CNCCCNCCCN)cc(-c2ccc(OC(F)(F)F)c(CNCCCNCCCN)c2)c1 [CZ-69],< 50 µM,< 50 µM,–
NCCCNCCCNCc1cc(CNCCCNCCCN)cc(-c2ccncc2)c1 [CZ-71],< 50 µM,> 100 µM,–
COc1ccc(-c2cc(CNCCCNCCCN)cc(CNCCCNCCCN)c2)cn1 [CZ-72],< 50 µM,< 50 µM,–
NCCCNCCCNCCCNCc1cc(CNCCCNCCCNCCCN)cc(-c2ccccc2)c1 [CZ-73],< 50 µM,< 50 µM,–
N=C(NCCCCCCNC(=N)NC(=N)Nc1ccc(Cl)cc1)NC(=N)Nc1ccc(Cl)cc1.O=C(O)[C@H](O)[C@@H](O)[C@H](O)[C@H](O)CO.O=C(O)[C@H](O)[C@@H](O)[C@H](O)[C@H](O)CO [chlorhexidine gluconate],–,–,biofilm dispersal effect (comparison antimicrobials) [3]: not seen
O=CCCCC=O [glutaraldehyde],–,–,biofilm dispersal effect (comparison antimicrobials) [3]: not seen
"NCCCNCCCN [norspermidine, N-(3-aminopropyl)propane-1,3-diamine]",–,–,concentration at which biofilm formation is inhibited (biofilm formation): 25 µM
NCCCCNCCCN [spermidine],–,–,concentration at which active (biofilm formation; only active at much higher concentrations): ~1 mM
